Results taken from patent publication EP0301861A1, “Cell proliferation inhibitors” (Takeda Chemical Industries, Ltd., priority 1987, dated 1989).
Values after ≈ are worked out from the molar mass of the structure shown.

Key:
[1] = tested on: human umbilical venous endothelial cells; assay: Inhibition of proliferation of human umbilical venous endothelial cells (MTT); type: cell-based; conditions: Endothelial cell, 72 h, rFGF 2 ng/ml, 3 days of incubation, OD₅₉₀, read-out: IC₅₀
Protocol: Experiment 3 [Evaluation of inhibition of proliferation of human umbilical venous endothelial cells]
The human vascular endothelial cells were obtained by subculture of the cells, which had been obtained from human umbilical vein by perfusion with tripsin solution, in the culture medium which had been prepared by addition of 2.5% bovine fetal serum and 2.0 ng/ml of human recombinant fibroblast growth factor (abbreviated as rFGF hereinafter; prepared in Biotechnology Institute of our company) to GIT medium (Daigo Eiyou Kagaku).
A hundred µl of the suspension of 2 x 10³ human vascular endothelial cells was introduced to a 96-well culture plate (Nunc, 1-67008) and incubated in a gas-controlled thermostat. On the next day rFGF and 100 µl of a medium containing different concentrations of the test substance were added, so that the final concentration of rFGF might be 2 ng/ml. The test substance was dissolved in dimethylsufoxide (DMSO hereinafter) solution, and the resultant solution was diluted so that the final DMSO concentration might be 0.25% or less. After 3 days of incubation, the culture medium containing the test substance was aspirated off, 100 µl of 1 mg/ml MTT solution (3-(4,5-dimethyl-2-thiazolyl)-2,5-diphenyl-2H-tetrazolium bromide dissolved in the culture medium) was added, and the mixture was kept warm for 4 hours. Then 100 µl of 10% SDS solution (aqueous solution of sodium dodecylsulfate) was added and kept warm for 5 - 6 hours, so that the cells and MTT pigment were solubilized, and the OD₅₉₀ value was determined by spectrophotometer. The OD value of the control sample containing no test substance was taken as 100%, and the endothelial cell growth-inhibitory activity of the test substance was compared on the basis of the IC₅₀ value, the concentration of a compound at which 50% OD value is observed.

[2] = molecular target: T1, 5-lipoxygenase from guinea pig polymorphonuclear leukocytes (Cavia porcellus, UniProt A0A286X958); assay: Inhibition of 5-lipoxygenase; type: biochemical; conditions: 10⁻⁵ M; 25µM [1-¹⁴C]arachidonic acid as substrate, 25°C
T1 construct: from guinea pig peritoneal macrophage; from tissue
T1 sequence (A0A286X958 1-674): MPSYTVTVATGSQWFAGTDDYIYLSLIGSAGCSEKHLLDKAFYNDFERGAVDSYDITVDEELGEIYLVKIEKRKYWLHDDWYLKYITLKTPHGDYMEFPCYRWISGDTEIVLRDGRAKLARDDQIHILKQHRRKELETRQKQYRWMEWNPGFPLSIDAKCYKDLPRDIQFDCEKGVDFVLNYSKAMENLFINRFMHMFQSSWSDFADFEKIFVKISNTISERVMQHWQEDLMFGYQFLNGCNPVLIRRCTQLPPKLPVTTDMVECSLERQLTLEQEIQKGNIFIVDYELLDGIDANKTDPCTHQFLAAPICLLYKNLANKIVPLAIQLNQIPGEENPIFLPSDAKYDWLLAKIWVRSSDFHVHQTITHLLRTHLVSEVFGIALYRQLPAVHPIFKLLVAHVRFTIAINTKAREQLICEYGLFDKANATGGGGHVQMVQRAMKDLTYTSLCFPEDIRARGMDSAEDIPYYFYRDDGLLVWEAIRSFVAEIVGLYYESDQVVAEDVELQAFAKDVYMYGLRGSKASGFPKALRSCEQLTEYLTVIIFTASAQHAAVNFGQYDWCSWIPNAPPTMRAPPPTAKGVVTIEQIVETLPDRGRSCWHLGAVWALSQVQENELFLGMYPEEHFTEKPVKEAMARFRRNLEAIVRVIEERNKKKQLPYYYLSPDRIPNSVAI
Protocol: According to the routine method these ingredients were mixed and compressed by a tableting machine. Experiment 1 [Inhibition (10⁻⁵ M) of 5-lipoxygenase from guinea pig polymorphonuclear leukocytes]
5-Lipoxygenase used was the enzyme preparation prepared from guinea pig […]. For determination of the activity of lypoxygenase 25µM [1-¹⁴C]arachidonic acid (5 x 10⁴ cpm) as the substrate, 50 mM phosphate buffer solution (pH 7.4), 2 mM CaCl₂, 2 mM ATP, and a reaction mixture containing the enzyme (200µl) were used. After preincubation at 25°C for 2 minutes, [1-¹⁴C]arachidonic acid (5 x 10⁴ cpm) was added, and allowed to react at 25°C for 3 minutes; the resultant mixture was made acidic, and arachidonic acid and its metabolites were extracted with ether. Radioactivity of the ether layer was determined by silica gel thin layer chromatography using a mixture of petroleum ether:ethylether:acetic acid (15:85:0.1) as the eluant and the elution was performed at -10°C. After elution, the thin layer plate was subjected to autoradiography, the radioactive fractions were scraped out, and the radioactivity of the product was determined by counting. The agent was added two minutes before the beginning of the reaction.

[3] = tested on: IL-2-dependent cells (NKC-3); assay: Inhibition of growth of IL-2-dependent cells (NKC-3) (MTT); type: cell-based; conditions: NKC-3 cells with IL-2, 37°C for 20 hours, absorbance at 590 nm, read-out: IC₅₀
Protocol: Experiment 4 [Evaluation of inhibition of growth of IL-2-dependent cells (NKC-3)]
To each well of a 96-well microplate, 50 µl of NKC-3 cells (4 x 10⁵ cells/well), 20 µl of IL-2 solution (0.067 U/ml), and 40 µl of the test substance (DMSO solution) were added, which was incubated at 37°C for 20 hours (culture medium: RPMI1640-20%ECS). To each well 20 µl of MTT solution was added,which was kept at 37°C for 4 hours. Then 100 µl of 10% SDS solution was added to each well, which was kept still at 37°C overnight so that the cells and MTT pigment were solubilized, and the absorbance at 590 nm was measured by spectrophotometer. […] Compound No. IC₅₀ (M) 5 4.1 x 10⁻⁵

Inhibitory activity (%) [2] [%]	Structure (SMILES)	IC50 [1] [µg/mL]	IC50 [3] [µM]
	COC1=C(OC)C(=O)C(C(CCCCCC(=O)NO)c2ccccc2)=C(C)C1=O (stereo not shown) [compound 16]	1.25 (≈ 3.11 µM)	
	CC1=C(C)C(=O)C(C(CCC(=O)NO)c2ccccc2)=C(C)C1=O (stereo not shown) [Compound No.1]	10 (≈ 30.5 µM)	
	CC1=C(C)C(=O)C(C(CCCCCCC(=O)NO)c2ccccc2)=C(C)C1=O (stereo not shown) [compound 10]	25 (≈ 65.2 µM)	
	CC1=C(C)C(=O)C(C(CCCCC(=O)NO)c2ccc(F)cc2)=C(C)C1=O (stereo not shown) [compound 3]	1.25 (≈ 3.35 µM)	
74.6	CC1=C(C)C(=O)C(C(CCCCCC(=O)NO)c2ccccc2)=C(C)C1=O (stereo not shown) [Compound No.5]	0.63 (≈ 1.71 µM)	41
	CC1=C(C(CCCCCCC(=O)NO)c2ccccc2)C(=O)c2ccccc2C1=O (stereo not shown) [compound 15]	< 0.63	
	CC1=C(C(CCCC(=O)NO)c2ccccc2)C(=O)c2ccccc2C1=O (stereo not shown) [compound 11]	5 (≈ 13.8 µM)	
79.3	CC1=C(C)C(=O)C(C(CCCCCC(=O)NO)c2ccc(F)cc2)=C(C)C1=O (stereo not shown) [Compound No.6, 7-(4-fluorophenyl)-7-(3,5,6-trimethyl-1,4-benzoquinon-2-yl)-heptanohydroxamic acid]	1.25 (≈ 3.23 µM)	
	CC1=C(C)C(=O)C(C(CCCCC(=O)NO)c2ccccc2)=C(C)C1=O (stereo not shown) [compound 2]	0.63 (≈ 1.77 µM)	
	CC1=C(C(CCCCC(=O)NO)c2ccccc2)C(=O)c2ccccc2C1=O (stereo not shown) [compound 12]	0.08 (≈ 0.212 µM)	
83.8	COc1ccc(C(CCCCCC(=O)NO)C2=C(C)C(=O)C(C)=C(C)C2=O)cc1 (stereo not shown) [Compound No.8, 7-(4-methoxyphenyl)-7-(3,5,6-trimethyl-1,4-benzoquinon-2-yl)-heptanohydroxamic acid]	0.63 (≈ 1.58 µM)	
	COc1ccc(C(CCCCC(=O)NO)C2=C(C)C(=O)C(C)=C(C)C2=O)cc1 (stereo not shown) [compound 4]	0.63 (≈ 1.63 µM)	
89.7	CC1=C(C(CCCCCC(=O)NO)c2ccc(F)cc2)C(=O)c2ccccc2C1=O (stereo not shown) [compound 14]	< 0.63	
	CC1=C(C(CCCCC(=O)NO)c2cccs2)C(=O)c2ccccc2C1=O (stereo not shown) [Compound No.13]	< 0.08	
	COC1=C(OC)C(=O)C(C(CCCC(=O)NO)c2ccccc2)=C(C)C1=O (stereo not shown) [compound 17]	20 (≈ 53.6 µM)	
	CC1=C(C)C(=O)C(C(CCCCCC(=O)NO)c2ccc(C)cc2)=C(C)C1=O (stereo not shown) [compound 7]	1.25 (≈ 3.26 µM)	
	CC1=C(C)C(=O)C(C(CCCCCC(=O)NO)c2ccc(Cl)cc2)=C(C)C1=O (stereo not shown) [compound 9]	1.25 (≈ 3.09 µM)	
